Test results reported in patent US9428551B2, “Antimicrobial peptides” (priority 2009, dated 2016).

Key:
S. epidermidis s42 [1] = assay: potassium release, K+ sensitive fluorescent dye PBFI; type: cell-based; details: highest concentration, 10×MIC
Description: (§1) Results are expressed as % of positive control and that NI01 causes concentration dependent release of potassium from indicator cells with 100% being released at the highest concentration of NI01 assessed (10×MIC).

[2] = tested on: Vancomycin resistant Enterococcus faecalis; assay: MIC by micro-dilution (BSAC); type: cell-based
S. epidermidis 156 = assay: viability, optical density and Gram staining after addition of peptide; type: cell-based
Bacillus subtillis = assay: MIC by micro-dilution (BSAC); type: cell-based
[3] = tested on: reference strain RP62a, gentamicin resistant clinical isolate 53 and gentamicin sensitive isolate 156; assay: single-step (spontaneous) mutation tests; type: cell-based, S. epidermidis; details: two, four and eight times the MIC; strains RP62a, 53 and 156; no evidence of mutation
S. hominis = assay: MIC by micro-dilution (BSAC); type: cell-based
[4] = enzyme stability of the peptide (activity in AU/ml after enzyme treatment)
S. aureus 1195 = assay: MIC by micro-dilution (BSAC); type: cell-based
strain 156 biofilm = assay: biofilm formation on peptide-coated polyethylene beads; type: cell-based, Staphylococcus epidermidis; details: beads submerged in semi-pure peptide 2 hours, inoculum 3×10^8 cfu/ml of strain 156, p=0.000
S. epidermidis s42 [5] = assay: membrane potential, DiSC3(5) assay; type: cell-based; details: all concentrations assessed; levels exceeded positive control nisin 10×MIC
Description: as §1
In summary, mode of action studies, using DiSC3(5) [3,3′-Dipropylthiadicarbocyanine iodide] assays, indicate that NI01 depolarises the membrane (FIG. 12) of the a Staphylococcus epidermidis strain resulting in loss of potassium (FIG. 13) and ATP (FIG. 14).

S. epidermidis s42 [6] = assay: ATP release; type: cell-based; details: 10×MIC
[7] = tested on: Staphylococcal isolates associated with joint or tissue infections; assay: deferred antagonism method, inhibition of clinical Staphylococcal isolates; type: cell-based, Staphylococci; parameters: key to Inhibition caused by NI01: NI indicates no inhibition; 1+: on a score of 1-3; 2+: on a score of 1-3; 3+: on a score of 1-3
Propionibacterium acnes = assay: spot on lawn method; type: cell-based; details: purified preparations of NI01, spot on lawn method
Enterococcus faecalis = assay: MIC by micro-dilution (BSAC); type: cell-based
pH stability = type: physicochemical
S. epidermidis = assay: MIC by micro-dilution (BSAC); type: cell-based;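 note: MIC in µg/ml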
[8] = tested on: clinical biofilm forming strains of CNS Staphylococci species associated with prosthetic joint infections; assay: passaging in sub-inhibitory concentrations; type: cell-based; details: for MIC after passaging: sub-inhibitory concentrations
S. saprophyticus = assay: MIC by micro-dilution (BSAC); type: cell-based
Listeria monocytogenes = assay: MIC by micro-dilution (BSAC); type: cell-based
Bacillus cereus = assay: MIC by micro-dilution (BSAC); type: cell-based
MRSA (EMRSA 15) = assay: MIC by micro-dilution (BSAC); type: cell-based;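 note: MIC in µg/ml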
S. warneri = assay: MIC by micro-dilution (BSAC); type: cell-based
Streptococcus mutans = assay: MIC by micro-dilution (BSAC); type: cell-based;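 note: MIC in µg/ml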
[9] = following treatment with protease
[10] = Strain 11, gentamicin and methicillin resistant clinical isolate
[11] = Strain 12, gentamicin resistant clinical isolate

peptide NI01: antimicrobial peptide (bacteriocin, SEQ ID NO:3) obtained from a Staphylococcal culture; C terminal sequence QSFEWIYKQIKKLWA (MAAFMKLIQFLATKGQKYVSLAWKHKGTILKWINAGQSFEWIYKQIKKLWA; NOI01 polypeptide)
potassium release (S. epidermidis s42 [1]): 100 % of positive control
MIC ([2]; Vancomycin resistant Enterococcus faecalis 1): 1 µg/mL
MIC ([2]; Vancomycin resistant Enterococcus faecalis 2): 1 µg/mL
MIC ([2]; Vancomycin resistant Enterococcus faecalis 3): 1 µg/mL
MIC ([2]; Vancomycin resistant Enterococcus faecalis 4): 1 to 2 µg/mL
MIC ([2]; Vancomycin resistant Enterococcus faecalis 5): 0.5 to 1 µg/mL
MIC ([2]; Vancomycin resistant Enterococcus faecalis 6): 0.5 µg/mL
stained cells per field of view (Gram stain) following addition of peptide (S. epidermidis 156; at least 150 small cocci per field prior to addition): less than 20 cells per field of view
type of activity against the target bacterium (S. epidermidis 156; from cfu count and optical density): bactericidal, but non-lytic
cfu count after addition of peptide (S. epidermidis 156; peptide added at T=30, decrease not as pronounced in optical density): rapid decrease
MIC (Bacillus subtillis): <0.125 µg/mL
mutation (single-step mutation tests) [3]: < 1.5×10^8 cfu/ml
MIC (S. hominis): 1 µg/mL
activity after treatment [4, 9]: 160 AU/ml
reduction in activity [4, 9]: 75%
activity before enzyme treatment ([4]; partially purified peptide, starting activity): 640 AU/ml
activity after treatment ([4]; treatment with trypsin): 320 AU/ml
reduction of activity ([4]; treatment with trypsin): 50%
MIC (S. aureus 1195): 2 µg/mL
reduction of biofilm on coated versus uncoated polyethylene beads (strain 156 biofilm): 2.85 log units
effect on membrane potential (S. epidermidis s42 [5]): rapidly depolarized the membrane
cells that looked apoptotic (vero cells): 10-20%
damage to vero cells (vero cells): No significant damage
ATP released (S. epidermidis s42 [6]): > 65 % of positive control
Inhibition caused by NI01 ([7]; isolate 5133, Tissue (acetabulum), resistance: flu): 2+
Inhibition caused by NI01 ([7]; isolate S1, Tissue, resistance: meth, pen, ery, amp, flu, gen, trim, cip): 2+
Inhibition caused by NI01 ([7]; isolate S2, Joint fluid, resistance: pen, ery, amp, flu, gen, trim, cip): 2+
Inhibition caused by NI01 ([7]; isolate S4, Tissue, resistance: meth, flu, gen, trim): 3+
Inhibition caused by NI01 ([7]; isolate S5, Tissue, resistance: met): 3+
Inhibition caused by NI01 ([7]; isolate S6, Femoral canal, resistance: flu, ery, gen, rif, cip): 1+
Inhibition caused by NI01 ([7]; isolate S7, Femoral canal, sensitive): 1+
Inhibition caused by NI01 ([7]; isolate S8, Tissue, resistance: flu, ery, gen, rif, cip): 1+
Inhibition caused by NI01 ([7]; isolate S9, Tissue, resistance: flu, ery, gen, rif, cip): 3+
Inhibition caused by NI01 ([7]; isolate S10, Tissue, resistance: flu, ery, gen, rif, cip): 1+
Inhibition caused by NI01 ([7]; isolate S11, Tissue, resistance: flu, ery, gen, rif, cip): 2+
Inhibition caused by NI01 ([7]; isolate S12, Tissue, resistance: flu, ery, rif, cip): 1+
Inhibition caused by NI01 ([7]; isolate S13, Swab, resistance: flu, ery, gen, rif, cip): 1+
Inhibition caused by NI01 ([7]; isolate S25, Swab (left hip joint), resistance: meth, gen): 2+
Inhibition caused by NI01 ([7]; isolate S28, Tissue (femoral canal), resistance: meth, gen): 3+
Inhibition caused by NI01 ([7]; isolate S30, Tissue (left capsule), resistance: meth): 3+
Inhibition caused by NI01 ([7]; isolate S31, Swab (joint), sensitive): 2+
Inhibition caused by NI01 ([7]; isolate S37, Tissue (knee), sensitive): 2+
Inhibition caused by NI01 ([7]; isolate S39, Tissue (right knee), resistance: meth, flu, fus, cip): 1+
Inhibition caused by NI01 ([7]; isolate S40, Tissue (right knee), resistance: meth, flu, ery, fus, clin, cip): 1+
Inhibition caused by NI01 ([7]; isolate S41, Tissue (femoral canal), resistance: meth, flu, fus, cip): 1+
Inhibition caused by NI01 ([7]; isolate S42, Tissue (right knee), resistance: meth, flu, fus, cip): NI
Inhibition caused by NI01 ([7]; isolate S43, Swab (right hip joint), resistance: meth, flu, ery, fus, clin, cip): NI
Inhibition caused by NI01 ([7]; isolate S44, Swab (right hip joint), resistance: meth, flu, ery): NI
Inhibition caused by NI01 ([7]; isolate S46, Swab (right hip joint), resistance: meth, flu, gen, fus, cip): NI
Inhibition caused by NI01 ([7]; isolate S47, Swab (tibia), resistance: meth, flu, ery, gen, fus, cip): NI
Inhibition caused by NI01 ([7]; isolate S48, Tissue (left knee), resistance: meth, flu, ery, gen, fus, cip): 1+
Inhibition caused by NI01 ([7]; isolate S49, Tissue (left knee), resistance: meth, flu, ery, gen, fus, cip): 2+
Inhibition caused by NI01 ([7]; isolate S52, Tissue (right hip joint), resistance: gen, cip): 2+
Inhibition caused by NI01 ([7]; isolate S53, Swab (femur), resistance: gen, cip, fus): 2+
Inhibition caused by NI01 ([7]; isolate S56, Tissue (right hip joint), sensitive): 2+
Inhibition caused by NI01 ([7]; isolate S60, Tissue (femur), resistance: gen, trim): NI
Inhibition caused by NI01 ([7]; isolate S71, Swab (femur), resistance: flu): 2+
Inhibition caused by NI01 ([7]; isolate S78, Tissue (right elbow), resistance: flu, ery): 1+
Inhibition caused by NI01 ([7]; isolate S79, Pus (right elbow), resistance: meth, flu, ery): 1+
Inhibition caused by NI01 ([7]; isolate S80, Tissue (triceps), resistance: flu, ery): 1+
Inhibition caused by NI01 ([7]; isolate S81, Pus (right elbow), resistance: flu, ery): 1+
Inhibition caused by NI01 ([7]; isolate S82, Tissue (right elbow), resistance: flu, ery): 1+
Inhibition caused by NI01 ([7]; isolate S83, Tissue (next to bone), resistance: flu, ery): 1+
Inhibition caused by NI01 ([7]; isolate S85, Tissue (left elbow), resistance: meth, ery): 1+
Inhibition caused by NI01 ([7]; isolate S86, Swab (right elbow), sensitive): 2+
Inhibition caused by NI01 ([7]; isolate S88, Swab (left hip), sensitive): 1+
Inhibition caused by NI01 ([7]; isolate S89, Tissue (right elbow), resistance: meth, flu, ery): 1+
Inhibition caused by NI01 ([7]; isolate S90, Ulcer, resistance: flu, ery): 2+
Inhibition caused by NI01 ([7]; isolate S91, Swab (right acetabulum), resistance: flu): 2+
Inhibition caused by NI01 ([7]; isolate S92, Swab (femur), resistance: flu): 1+
Inhibition caused by NI01 ([7]; isolate S93, Tissue (wound), resistance: flu, ery, gen, fus): NI
Inhibition caused by NI01 ([7]; isolate S94, Tissue (right femur), resistance: flu): 3+
Inhibition caused by NI01 ([7]; isolate S95, Tissue (right femur), resistance: flu, trim): 3+
Inhibition caused by NI01 ([7]; isolate S96, Tissue (right femur), resistance: flu): 1+
Inhibition caused by NI01 ([7]; isolate S97, Tissue (acetabulum), resistance: flu): 3+
Inhibition caused by NI01 ([7]; isolate S106, Neck of femur, resistance: ery, fus): 3+
Inhibition caused by NI01 ([7]; isolate S127, Tissue (screw holes), resistance: flu): 1+
Inhibition caused by NI01 ([7]; isolate S128, Tissue (under plate), resistance: meth, flu): 1+
Inhibition caused by NI01 ([7]; isolate S156, Tissue (acetabulum), resistance: ery, fus): 3+
Inhibition caused by NI01 ([7]; isolate S159, Swab (right thigh), resistance: meth, flu, ery): 1+
Inhibition caused by NI01 ([7]; isolate S160, Swab (right hip), resistance: meth, flu, gen): 2+
Inhibition caused by NI01 ([7]; isolate S161, Swab (right hip sinus), resistance: flu, ery, gen, fus, cip): 2+
Inhibition caused by NI01 ([7]; isolate S163, Tissue (right hip), resistance: flu, ery, gen, fus, cip): 1+
Inhibition caused by NI01 ([7]; isolate S164, Tissue (right hip), resistance: ery, fus, amp, clin): NI
inhibitory effect, score ([7]; isolate Staphylococcus epidermis 156, biofilm forming, from infected acetabulum tissue, over a 100 hour period (FIG. 5)): +3
clinical biofilm forming isolates of Staphylococci inhibited ([7]; isolates associated with joint and/or tissue infections, summary of Table 1): 58 out of the 60
clinical biofilm forming isolates of Staphylococci inhibited, percent ([7]; summary of Table 1): 91%
activity against Propionibacterium acnes (Propionibacterium acnes): activity
MIC (Enterococcus faecalis): 1 µg/mL
activity lost (pH stability; acidic pH 2): about 5%
activity lost (pH stability; alkaline pH 10): 12%
activity retained (pH stability; between pH 4-8): 100%
MIC (S. epidermidis; S. epidermidis RP62a): 2 to 4 µg/mL
MIC (S. epidermidis; S. epidermidis s1): 1 µg/mL
MIC (S. epidermidis; S. epidermidis s2): 4 µg/mL
MIC (S. epidermidis; S. epidermidis s37): 2 µg/mL
MIC (S. epidermidis; S. epidermidis s42): 2 µg/mL
MIC (S. epidermidis; S. epidermidis s44): 4 µg/mL
MIC (S. epidermidis; S. epidermidis s60): 2 µg/mL
MIC (S. epidermidis; S. epidermidis s93): 2 µg/mL
MIC (S. epidermidis; S. epidermidis s156): 0.0625 µg/mL
MIC before passaging [8, 10]: 7800 µg/mL
MIC after passaging [8, 10]: 15600 µg/mL
MIC before passaging [8, 11]: 3900 µg/mL
MIC after passaging [8, 11]: 7800 µg/mL
change in MIC after passaging ([8]; all of the other strains tested (of twelve)): no change
MIC (S. saprophyticus): 0.5 to 1 µg/mL
haemolysis (haemolysis): not haemolytic
MIC (Listeria monocytogenes): <0.125 µg/mL
MIC (Bacillus cereus): <0.125 µg/mL
MIC (MRSA (EMRSA 15); MRSA s37 (EMRSA 15)): 1 to 2 µg/mL
MIC (MRSA (EMRSA 15); MRSA s41 (EMRSA 15)): 1 to 2 µg/mL
MIC (MRSA (EMRSA 15); MRSA s71 (EMRSA 15)): 2 µg/mL
MIC (S. warneri): 1 µg/mL
MIC (Streptococcus mutans; Streptococcus mutans 263): 2 µg/mL
MIC (Streptococcus mutans; Streptococcus mutans 313): 0.12 µg/mL
